From patent EP0499831A2, “Combination of active agents comprising a sydnonimin derivate and a hirudin” (CASSELLA Aktiengesellschaft, priority 1991, dated 1992)

Columns and labels:
[1] = test system: Coronarthrombose; assay: Coronary thrombosis by the method of Folts et al.: frequency of cyclic blood flow variations (CFV's) in the damaged, stenosed left descending coronary artery of anaesthetised pigs; format: in vivo, Hausschweinen
Method: Bei den tief narkotisierten Tieren wurde der Thorax eröffnet; die linke absteigende Coronararterie wurde freipräpariert und mit einem elektromagnetischen Blutströmungsmeßkopf versehen. Distal des Meßkopfes wurde das Coronargefäß durch kurzes (1 s) Quetschen mit einer Gefäßklemme geschädigt. Auf diese Stelle wurde ein Plastikkonstriktor (innerer Durchmesser 1.7 - 2.8 mm, Länge 2 mm) gesetzt, der das Gefäß stenosiert. […] Die Thromben wurden durch Bestimmung der Frequenz (Anzahl pro 60 min) der zyklischen Blutströmungsveränderungen quantifiziert. […] 0.1 mg/kg Molsidomin i.v. zusammen mit 0.1 mg/kg r-Hirudin i.v., gefolgt von 0.1 mg/kg·60 min r-Hirudin - Infusion.
Der Versuch wurde 1 Stunde nach Ende der Infusion bzw. 2 Stunden nach Bolusinjektion der Substanzen beendet. Die Frequenzen der zyklischen Blutströmungsveränderungen in der Stunde vor und in der ersten und zweiten Stunde nach Injektion der Prüfsubstanzen wurden für jede Versuchsgruppe gemittelt. Die mittleren Frequenzen der Zyklen vor und nach Substanzverabreichung wurden statistisch miteinander verglichen (Student-t-Test für verbundene Stichproben). Ein p - Wert von < 0.05 galt als signifikanter Unterschied.

[2] = Systolic and diastolic peripheral arterial blood pressure measured in the same animals; format: in vivo, Hausschweinen; conditions: Molsidomin 0.1 mg/kg i.v. alone (Gruppe 1) or with r-Hirudin total 0.2 mg/kg i.v. (Gruppe 3)
Source text: Diese Wirkung wurde in folgendem Test ermittelt: Bei männlichen, ca. 4 Monate alten Hausschweinen wurde eine Coronarthrombose nach der Methode von Folts et al (Circulation 1976, 54; 365 - 70) erzeugt. Bei den tief narkotisierten Tieren wurde der Thorax eröffnet; die linke absteigende Coronararterie wurde freipräpariert und mit einem elektromagnetischen Blutströmungsmeßkopf versehen. Distal des Meßkopfes wurde das Coronargefäß durch kurzes (1 s) Quetschen mit einer Gefäßklemme geschädigt. Auf diese Stelle wurde ein Plastikkonstriktor (innerer Durchmesser 1.7 - 2.8 mm, Länge 2 mm) gesetzt, der das Gefäß stenosiert. Diese Versuchsbedingungen führten zum Auftreten regelmäßiger zyklischer Blutströmungsveränderungen (CFV's), verursacht durch die wiederholte Bildung und Embolisierung von Thromben an der geschädigten stenosierten Stelle. Die Thromben wurden durch Bestimmung der Frequenz (Anzahl pro 60 min) der zyklischen Blutströmungsveränderungen quantifiziert. […]

Structure (SMILES): CCOC(=O)[N-]c1cn(N2CCOCC2)n[o+]1 [Molsidomin, N-Ethoxycarbonyl-3-morpholino-sydnonimin]
- Anzahl thrombotischer Flowzyklen (n/60 min) 1. Stunde nach Substanzinjektion ([1]; 1st hour after injection, Molsidomin 0.1 mg/kg i.v. bolus, r-Hirudin total 0.2 mg/kg (0.1 mg/kg i.v. bolus + i.v. infusion over 60 min), combination: both, n=6): 19 ± 3 n/60 min
- Anzahl thrombotischer Flowzyklen (n/60 min) 1. Stunde Vorphase ([1]; baseline hour before substance injection, mean of group, n=6): 16 ± 2 n/60 min
- antithrombotische Wirkung der Einzeldosierungen ([1]; preliminary experiments (Vorversuche), single doses: Molsidomin 0.1 mg/kg i.v., r-Hirudin total 0.2 mg/kg i.v.): gerade nicht antithrombotisch wirkend
- Senkung des diastolischen Blutdrucks ([2]; decrease not significant): 10 ± 5 mm Hg
- Senkung des systolischen Blutdrucks ([2]; maximal decrease, p < 0.05): 18 ± 5 mm Hg
